Measurements as given in patent US12680065B2, “Artificial placenta and methods of preparation” (The Trustees of the University of Pennsylvania, priority 2015, dated 2026).

How the values were obtained:
trophoblast cells = test: β-hCG ELISA of maternal compartment perfusate; format: cell-based, human; conditions: 50 uM forskolin; no detectable β-hCG in the absence of forskolin
Protocol: Following the formation of a confluent epithelial monolayer on the membrane surface in the upper microchannel, the apical side of the epithelium can be treated with forskolin to activate the protein kinase A pathway in the cultured trophoblasts. A stock solution of forskolin ([…] 5 mg/mL in DMSO) can be diluted with F-12K medium to a final concentration of 50 uM and perfused through the upper microchannel. After 72 hours of forskolin treatment, the trophoblast cells can be fixed in 4% PFA, permeabilized in Triton-X 100, and then incubated with 2% BSA in PBS for immunofluorescence staining. To analyze changes in junctional protein expression, the samples can be incubated with anti-E-cadherin antibody (Life Technologies) in 2% BSA, followed by secondary antibody and DAPI. Additionally, media perfusate can be collected at 48, 72, and 96 hours from both untreated and forskolin-treated devices. The collected samples can be analyzed using a human chorionic gonadotropin beta (β-hCG) ELISA kit (Abcam) to quantify the levels of β-hCG produced by the trophoblast population at each time point. […] Accordingly, the production of the […] of hCG in the maternal compartment can be measured to quantitatively examine syncytialization. […]

BeWo cells = test: Forskolin-induced trophoblast syncytialization in the microfluidic device (immunofluorescence); format: cell-based, human
Protocol: Following the formation of a confluent epithelial monolayer on the membrane surface in the upper microchannel, the apical side of the epithelium can be treated with forskolin to activate the protein kinase A pathway in the cultured trophoblasts. A stock solution of forskolin (Sigmal 5 mg/mL in DMSO) can be diluted with F-12K medium to a final concentration of 50 uM and perfused through the upper microchannel. After 72 hours of forskolin treatment, the trophoblast cells can be fixed in 4% PFA, permeabilized in Triton-X 100, and then incubated with 2% BSA in PBS for immunofluorescence staining. To analyze changes in junctional protein expression, the samples can be incubated with anti-E-cadherin antibody (Life Technologies) in 2% BSA, followed by secondary antibody and DAPI. Additionally, media perfusate can be collected at 48, 72, and 96 hours from both untreated and forskolin-treated devices. The collected samples can be analyzed using a human chorionic gonadotropin beta (β-hCG) ELISA kit (Abcam) to quantify the levels of β-hCG produced by the trophoblast population at each time point.
Accordingly, when the BeWo cells in the maternal compartment are exposed to forskolin, they can begin to undergo cell-cell fusion as illustrated by nuclear aggregation that can be evident at 72 hours of forskolin treatment (FIG. 9B). […]

C=C[C@@]1(C)CC(=O)[C@]2(O)[C@@]3(C)[C@@H](O)CCC(C)(C)[C@@H]3[C@H](O)[C@H](OC(C)=O)[C@@]2(C)O1 [forskolin]
time to production of hCG by trophoblast cells (trophoblast cells): ≤ 48 h
fraction of BeWo population undergoing cell-cell fusion (nuclear aggregation) (BeWo cells; 50 uM forskolin in upper microchannel, 72 hours): approximately 50%
effect on cell viability (BeWo cells; 50 uM forskolin, BeWo cells in maternal compartment): does not necessarily exert deleterious effects on cell viability
